Results from patent US10189796B2, “[4-(1,3,3-trimethyl-2-oxo-3,4-dihydro-1H-quinoxalin-7-yl)phenoxy]ethyloxy compound or salt thereof” (SANTEN PHARMACEUTICAL CO., LTD., priority 2015, dated 2019).

Legend:
[1] = test system: VEGF-induced retinal elevated vascular permeability model of rabbits; assay: Retinal vascular permeability model evaluation test; type: in vivo, rabbit; conditions: 2% 50 μL/base agent A, intravitreal once
Procedure: In order to evaluate the inhibitory effect of the present compounds on VEGF-induced retinal vascular permeability, the inhibitory effect of the present compound on retinal vascular permeability in a VEGF-induced retinal elevated vascular permeability model of rabbits was evaluated. Incidentally, this effect was evaluated by calculating a leaked amount of the fluorescent dye of the base agent administered group (non-induced group), a leaked amount of the fluorescent dye of the base agent administered group (control group) and a leaked amount of the fluorescent dye of the test compound administered group.
To the test compound was added 0.01% Polysorbate 80/0.5% sodium carboxymethyl cellulose/PBS (hereinafter referred to as “base agent A”.), whereby 2% (W/V) or 8% (W/V) of the test compound suspension was prepared. Or else, to the test compound was added PEG400 (hereinafter referred to as “base agent B”.), whereby 6% (W/W) of the test compound solution was prepared.
VEGF solution: humanVEGF165 was dissolved in PBS to prepare 50 μg/mL of VEGF solution.
• 1) A mixed solution (1 mL/kg) of 5% ketamine hydrochloride injection solution and 2% xylazine hydrochloride injection solution with the ratio of 7:1 was intramuscularly administered to rabbits (Dutch male rabbits), and the rabbits were anesthetized. • 2) Tropicamide-phenylephrine hydrochloride ophthalmic solution (trade name: Midlin P) was eye dropped to maintain pupillary mydriasis, and then, the VEGF solution was intravitreally administered. Incidentally, PBS was intravitreally administered to the base agent administration group (non-induced group). • 3) Fluorescein was intravenously administered 2 days after intravitreal administration of VEGF. Two hours after the intravenous administration of fluorescein, an amount of the leaked fluorescent dye in the vitreous body was measured by using a fluorophotometer. (Test Method) • 1) One week before or 4 weeks before VEGF-induction, 50 μL of the test compound suspension (prepared by the base agent A) was intravitreally administered once, or 5 μL of the test compound solution (prepared by the base agent B) was intravitreally administered once. Incidentally, in the base agent administered group (non-induced group) and the base agent administered group (control group), the base agent A was used in place of the test compound suspension, or the base agent B was used in place of the test compound solution. • 2) Inhibition ratio of elevated retinal vascular permeability was calculated according to the following calculation formula. (Calculation Formula) Inhibitory ratio (%) on elevated retinal vascular permeability of the test compound administered group=100×{1−(average value of a leaked fluorescent dye amount in the test compound administered group−average value of a leaked fluorescent dye amount in the base agent administered group (non-induced group))/(average value of a leaked fluorescent dye amount in the base agent administered group (control group)−average value of a leaked fluorescent dye amount of the base agent administered group (non-induced group))}

[2] = test system: IL-4 production in normal human CD4+T cell; assay: IL-4 production inhibitory action evaluation test (anti-CD3/CD28 antibody stimulation, ELISA); type: cell-based; conditions: anti-CD3/CD28, 24 hours, read-out: IL-4 production inhibitory ratio (% of 1 μM)
Procedure: In order to evaluate an action of the present compound as a GR agonist, IL-2 and IL-4 production inhibitory actions in a normal human CD4^+T cell after stimulation by an anti-CD3/CD28 antibody were investigated. For the measurement of the IL-2 and IL-4 production amounts, the ELISA method (manufactured by R&D Systems, Cat No. D2050, HS400) was used, and a procedure was carried out according to the protocol attached thereto. Hereinafter, the specific method will be described.
Dynabeads (Registered Trademark) Human T-Activator CD3/CD28 (4×10^7 beads/mL) (Dynabeads) was used, and prepared according to the protocol attached thereto.
After the test compound was dissolved in dimethylsulfoxide, the solution was diluted with an RPMI medium to prepare 400 μM of a test compound solution. The solution was diluted with a 4% dimethylsulfoxide-containing RPMI medium to prepare 40 μM of a test compound solution.
Used cells: normal peripheral blood human CD4^+T cell (human CD4^+T cell) (Lonza)
• 1) Frozen human CD4^+T cells were thawed in a warm water bath at 37° C., and added to an RPMI medium (RPMI 1640 containing 10% FBS, 100 U/mL of Penicillin, and […] of Streptomycin). • 2) The above suspension was recovered and centrifuged at 900 rpm for 10 minutes to give a cell sediment. • 3) The cell sediment was suspended in an RPMI medium and the operation of 2) was carried out. • 4) The cell sediment was adjusted to 4×10^5 cells/mL with an RPMI medium. • 5) The above suspension was cultured in a CO2 incubator (temperature: 37° C., CO2 concentration: 5%) for 1 hour or longer. (Test Method and Measurement Method) • 1) The cultured human CD4^+T cells were recovered and the cells were seeded in 96-well flat bottom culture plates at each 8.0×10^4 cells/0.2 mL/well. • 2) The test compound solution was added with each 5 μL/well. • 3) The prepared Dynabeads were added with each 2 μL/well. • 4) The sample in which 4% dimethylsulfoxide-containing RPMI medium was added with each 5 μL/well in place of each test compound solution, and the RPMI medium was added with each 2 μL/well in place of the Dynabeads was made a negative control. • 5) The sample in which 4% dimethylsulfoxide-containing RPMI medium was added with each 5 μL/well in place of each test compound solution was made a positive control. • 6) After completion of 24 hours cultivation, the supernatant was recovered and the amounts of IL-2 and IL-4 released in the supernatant was measured by using an ELISA Kit. • 7) The IL-2 and IL-4 production inhibitory ratios were calculated according to the following calculation formula. (Calculation of IL-2 and IL-4 Production Inhibitory Ratios)
The IL-2 and IL-4 production inhibitory ratios (%) were calculated by the following formula, respectively. IL-2 or IL-4 production inhibitory ratio (%)=100×{1−(IL-2 or IL-4 production amounts of each test compound solution−average value of IL-2 or IL-4 production amount of negative control group)/(average value of IL-2 or IL-4 production amount of positive control group−average value of IL-2 or IL-4 production amount of negative control group)}(%) (Test Result and Consideration)

| SMILES | Inhibitory ratio (%) on elevated vascular permeability ([1]; 1 week before VEGF induction) | Inhibitory ratio (%) on elevated vascular permeability ([1]; 4 weeks before VEGF induction) | inhibition at 1 µM [2] |
| --- | --- | --- | --- |
| COc1cc(OC[C@@H](O)CC#N)ccc1-c1ccc2c(c1COc1cc(F)ccc1C)N(C)C(=O)C(C)(C)N2 [Compound 5-2, (S)-7-[4-(3-cyano-2-hydroxypropyl)oxy-2-methoxyphenyl]-8-(5-fluoro-2-methyl-phenoxymethyl)-1,3,3-trimethyl-3,4-dihydro-1H-quinoxalin-2-one] | 96% | 91% | – |
| COc1ccc(CO)cc1-c1ccc2c(c1COc1cc(F)ccc1C)N(C)C(=O)C(C)(C)N2 [Control compound B, 8-(5-fluoro-2-methylphenoxymethyl)-7-(5-hydroxymethyl-2-methoxyphenyl)-1,3,3-trimethyl-3,4-dihydro-1H-quinoxalin-2-one, reference compound] | – | – | 51% |
| COCOc1ccc(-c2ccc3c(c2COc2cc(F)ccc2C)N(C)C(=O)C(C)(C)N3)c(OC)c1 [Control compound F, 8-(5-fluoro-2-methylphenoxymethyl)-7-(2-methoxy-4-methoxymethoxyphenyl)-1,3,3-trimethyl-3,4-dihydro-1H-quinoxalin-2-one, reference compound] | – | – | 29% |
| COc1ccc(O)cc1-c1ccc2c(c1COc1cc(F)ccc1C)N(C)C(=O)C(C)(C)N2 [Control compound C, 8-(5-fluoro-2-methylphenoxymethyl)-7-(5-hydroxy-2-methoxyphenyl)-1,3,3-trimethyl-3,4-dihydro-1H-quinoxalin-2-one] | – | – | 56% |
| COc1cc(OC[C@H](C)OC(=O)CN(C)C)ccc1-c1ccc2c(c1COc1cc(F)ccc1C)N(C)C(=O)C(C)(C)N2 [Compound 11-1, (S)-7-[4-[2-(N,N-dimethylaminoacetoxy)propyl]oxy-2-methoxyphenyl]-8-(5-fluoro-2-methylphenoxymethyl)-1,3,3-trimethyl-3,4-dihydro-1H-quinoxalin-2-one] | – | – | 87% |
| CCCC(=O)Oc1ccc(-c2ccc3c(c2COc2cc(F)ccc2C)N(C)C(=O)C(C)(C)N3)c(OC)c1 [Control compound D, 7-(4-butyryloxy-2-methoxyphenyl)-8-(5-fluoro-2-methylphenoxymethyl)-1,3,3-trimethyl-3,4-dihydro-1H-quinoxalin-2-one, reference compound] | – | 38% | 46% |
| COc1cc(OC[C@@H](O)CCO)ccc1-c1ccc2c(c1COc1cc(F)ccc1C)N(C)C(=O)C(C)(C)N2 [Compound 2-1, (S)-7-[4-(2,4-dihydroxybutyl)oxy-2-methoxyphenyl]-8-(5-fluoro-2-methyl-phenoxymethyl)-1,3,3-trimethyl-3,4-dihydro-1H-quinoxalin-2-one] | – | – | 83% |
| COc1cc(OC[C@H](C)O)ccc1-c1ccc2c(c1COc1cc(F)ccc1C)N(C)C(=O)C(C)(C)N2 [Compound 1-1, (S)-8-(5-fluoro-2-methylphenoxymethyl)-7-[4-(2-hydroxypropyl)oxy-2-methoxy-phenyl]-1,3,3-trimethyl-3,4-dihydro-1H-quinoxalin-2-one] | – | – | 91% |
| COc1ccc(-c2ccc3c(c2COc2cc(F)ccc2C)N(C)C(=O)C(C)(C)N3)c(OC)c1 [Control compound E, 7-(2,4-dimethoxyphenyl)-8-(5-fluoro-2-methyl-phenoxymethyl)-1,3,3-trimethyl-3,4-dihydro-1H-quinoxalin-2-one, reference compound] | 47% | – | 32% |
